Patent US11161860B2, “Compound having effects of inhibiting phosphodiesterase 4, preparation method thereof and pharmaceutical use thereof” (Hefei Industrial Pharmaceutical Institute Co., Ltd., priority 2018, dated 2021)
Marks after values point to notes of the source that are not given here.

Legend:
PDE4A enzyme = target: T1, PDE4A enzyme (Homo sapiens, UniProt P27815); assay: Inhibition of the activity of PDE4A enzyme (fluorescence polarization, Transcreener AMP2/GMP2); format: biochemical; settings: 1 h, mean ± spread; for remaining activity at 0.01 µM: 0.01 μM compound; for remaining activity at 0.1 µM: 0.1 μM compound; for remaining activity at 1 µM: 1 μM compound
T1 construct: GST (N); host or cells: Sf9 insect cells (baculovirus)
Description: The PDE4A enzyme expressed from baculovirus is labeled with N-terminal GST from Sf9 insect cells. A specified PDE4A enzyme and 1 mM cAMP are added to the newly prepared pH 7.5 Tris buffer, the enzyme solution is transferred into reaction wells, and the compound is sonicated in DMSO and then added to the enzyme solution for culturing for 10 minutes at room temperature; the substrate solution is poured into the reaction wells to initiate the reaction and cultured at room temperature for 1 hour, and a detection tracer (AMP2/GMP2 AlexaFluor 633 Tracer) and an antibody (Transcreener® AMP2/GMP2 Antibody) are added to stop the reaction for culturing for 90 minutes with gentle mixing. […]

[1] = tested on: DNCB-induced atopic dermatitis mice; assay: DNCB-induced dermatitis mouse model, skin thickness; format: in vivo, female BALB/C mice; settings: for reduction of the thickness of the dermis compared with Crisaborole / reduction of the thickness of the epidermis compared with Crisaborole / reduction of the thickness of the dermis compared with the compound Y5 / reduction of the thickness of the epidermis compared with the compound Y5: 50 mg/mL topical; for reduction of the thickness of the dermis compared with Crisaborole / reduction of the thickness of the epidermis compared with Crisaborole: statistical comparison vs Crisaborole group; for reduction of the thickness of the dermis compared with the compound Y5 / reduction of the thickness of the epidermis compared with the compound Y5: statistical comparison vs Y5 group; for Epidermal thickness / Dermis thickness: 50 mg/mL, 100 μL applied to back skin, 11 times once a day, Mean ± SD, n = 8; for Epidermal thickness: model 137.76, blank 48.93; for Dermis thickness: model 500.71, blank 194.70; for reduction of the thicknesses of the epidermal layer and dermal layer: vs model group, P<0.01
Description: After female BALB/C mice are selected, each weighing 18-22 g, for animal adaptive breeding for 7 days, these are randomly divided into a blank group, a model group, a positive drug Crisaborole group, a hexadecadrol group, and compound groups, with 8 in each group. Except for the mice in the blank group, the remaining mice are applied with 100 μL of a 1% DNCB solution [acetone: olive oil=4:1 (V/V)] on the skin of the back of the shaved mice, and applied continuously for 3 days once a day. Then, dosing treatment starts 4 days after the mice are housed, and the test drug is applied to the back of each group of animals, wherein animals in the blank group and the model group are applied with a corresponding solvent, the positive drug Crisaborole group and hexadecadrol group are applied with 50 mg/mL of a corresponding drug, and the administration group is applied with 50 mg/mL of a corresponding compound, with 100 μL for each mouse; after application of 4 hours, 0.5% DNCB solution is applied for secondary challenge, and repeated administration and challenge treatment are performed 11 times, once a day. 24 hours after the last administration, the animals are sacrificed, and the back skins (1×0.4 cm^2) are taken and fixed in 10% formalin buffer to make pathological sections and perform HE staining; then, the epidermal and dermal layers are observed under a 100× […], and 5 areas are selected for detection of and recording the skin thickness, and then the average value is taken to represent the final thicknesses of the epidermal layer and dermal layer, respectively.

T1 sequence (P27815 whole entry, species assumed): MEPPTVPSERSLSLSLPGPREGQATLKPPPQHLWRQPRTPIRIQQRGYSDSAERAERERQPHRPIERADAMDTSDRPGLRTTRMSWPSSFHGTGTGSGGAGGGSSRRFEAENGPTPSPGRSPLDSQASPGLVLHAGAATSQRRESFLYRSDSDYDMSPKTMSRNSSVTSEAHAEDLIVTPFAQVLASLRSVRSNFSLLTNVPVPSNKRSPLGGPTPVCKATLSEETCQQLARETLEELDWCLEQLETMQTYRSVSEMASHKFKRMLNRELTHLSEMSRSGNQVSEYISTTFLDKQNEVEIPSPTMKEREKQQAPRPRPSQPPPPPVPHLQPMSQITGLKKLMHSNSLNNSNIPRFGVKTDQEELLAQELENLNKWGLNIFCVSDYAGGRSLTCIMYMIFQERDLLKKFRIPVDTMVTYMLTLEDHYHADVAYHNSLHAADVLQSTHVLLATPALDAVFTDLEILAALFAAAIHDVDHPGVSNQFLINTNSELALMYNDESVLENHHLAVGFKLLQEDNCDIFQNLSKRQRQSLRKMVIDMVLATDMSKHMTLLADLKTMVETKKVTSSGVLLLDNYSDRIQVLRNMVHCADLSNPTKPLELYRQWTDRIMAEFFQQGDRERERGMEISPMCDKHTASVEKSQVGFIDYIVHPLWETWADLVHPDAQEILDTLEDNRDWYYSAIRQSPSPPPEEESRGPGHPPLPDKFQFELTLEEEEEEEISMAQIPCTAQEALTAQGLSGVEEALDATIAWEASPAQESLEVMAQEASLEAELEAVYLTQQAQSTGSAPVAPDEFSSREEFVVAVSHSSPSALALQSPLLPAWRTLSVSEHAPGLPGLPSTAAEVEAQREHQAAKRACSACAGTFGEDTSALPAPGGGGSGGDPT

Row | Compound | remaining activity at 0.01 µM (PDE4A enzyme) [%] | remaining activity at 0.1 µM (PDE4A enzyme) [%] | remaining activity at 1 µM (PDE4A enzyme) [%] | reduction of the thickness of the dermis compared with Crisaborole [1] | reduction of the thickness of the epidermis compared with Crisaborole [1] | reduction of the thickness of the dermis compared with the compound Y5 [1] | reduction of the thickness of the epidermis compared with the compound Y5 [1] | Epidermal thickness [1] | Dermis thickness [1] | reduction of the thicknesses of the epidermal layer and dermal layer [1]
1 | OB1OCc2cc(Oc3ccc4cc(C(F)(F)F)c(Cl)cc4n3)ccc21 [PD-15] | 2.09 ± 0.99 | 0.54 ± 0.5 | 1.08 ± 0.4 | significantly reduce the thickness of the dermis of dermatitis mice (P≤0.01) | significantly reduce the thickness of the epidermis (P≤0.01) | significantly reduce the thickness of the dermis of dermatitis mice (P≤0.01) | significantly reduce the thickness of the epidermis (P≤0.01) | 74.28 ± 8.26**^##aa μm | 376.62 ± 23.73 ^a a μm | –
2 | COC(=O)c1ccc2nc(Oc3ccc4c(c3)COB4O)cc(F)c2c1 [PD-20] | 6.13 ± 0.93 | 3.64 ± 0.48 | 1.78 ± 0.5 | – | – | – | – | 98.74 ± 10.55 μm | 438.14 ± 29.71 μm | –
3 | OB1OCc2cc(Oc3ccc(C(F)(F)F)cn3)ccc21 [Compound Y5, reference compound] | 61.3 ± 3.18 | 15.3 ± 1.3 | 5.56 ± 0.28 | significantly reduce the thickness of the dermis of dermatitis mice (P≤0.01) | significantly reduce the thickness of the epidermis of the dermatitis mice (P≤0.05) | – | – | 90.14 ± 8.98 μm | 415.08 ± 25.00 μm | significantly reduce the thicknesses of the epidermal layer and dermal layer
4 | OB1OCc2cc(Oc3ccc4c(C(F)(F)F)cc(Cl)cc4n3)ccc21 [PD-8] | 4.36 ± 0.59 | 2.25 ± 1.19 | 1.21 ± 0.17 | significantly reduce the thickness of the dermis of dermatitis mice (P≤0.01) | significantly reduce the thickness of the epidermis (P≤0.01) | significantly reduce the thickness of the dermis of dermatitis mice (P≤0.05) | significantly reduce the thickness of the epidermis (P≤0.01) | 76.58 ± 8.79**^##aa μm | 385.17 ± 28.85 ^a μm | –
5 | OB1OCc2cc(Oc3ccc4c(C(F)(F)F)cccc4n3)ccc21 [PD-7] | 6.41 ± 0.32 | 1.83 ± 0.41 | 1.12 ± 0.99 | significantly reduce the thickness of the dermis of dermatitis mice (P≤0.01) | significantly reduce the thickness of the epidermis (P≤0.01) | significantly reduce the thickness of the dermis of dermatitis mice (P≤0.01) | significantly reduce the thickness of the epidermis (P≤0.01) | 68.21 ± 7.66 aa μm | 370.11 ± 24.60 a a μm | –
6 | N#Cc1ccc2nc(Oc3ccc4c(c3)COB4O)cc(F)c2c1 [PD-22] | 7.16 ± 1.04 | 3.06 ± 0.27 | 1.78 ± 0.63 | – | – | – | – | 103.45 ± 11.74 μm | 447.77 ± 33.37 μm | –
7 | OB1OCc2cc(Oc3cc(Cl)nc4ccc(C(F)(F)F)cc34)ccc21 [PD-28] | 9.14 ± 0.89 | 4.42 ± 0.64 | 2.1 ± 0.93 | – | – | – | – | 70.51 ± 12.45 μm | 352.69 ± 30.77**^aa μm | –
8 | N#Cc1ccc(Oc2ccc3c(c2)COB3O)cc1 [Crisaborole, reference compound] | 78 ± 5.02 | 35.2 ± 3.35 | 11 ± 0.52 | – | – | – | – | 105.26 ± 11.35 μm | 455.14 ± 27.27 μm | significantly reduce the thicknesses of the epidermal layer and dermal layer
9 | NC(=O)c1cccc2nc(Oc3ccc4c(c3)COB4O)ccc12 [PD-11] | 10.1 ± 1.93 | 5.85 ± 0.72 | 1.7 ± 0.43 | – | – | – | – | 95.37 ± 8.75 μm | 443.17 ± 33.40 μm | –
10 | N#Cc1cc2ccc(Oc3ccc4c(c3)COB4O)nc2cc1Cl [PD-16] | 1.05 ± 1.26 | 0.45 ± 0.3 | 0.21 ± 0.57 | significantly reduce the thickness of the dermis of dermatitis mice (P≤0.01) | significantly reduce the thickness of the epidermis (P≤0.01) | significantly reduce the thickness of the dermis of dermatitis mice (P≤0.05) | significantly reduce the thickness of the epidermis (P<0.05) | 78.64 ± 9.75 a μm | 388.46 ± 24.06 a μm | –
11 | OB1OCc2cc(Oc3ccc4cc(C(F)(F)F)ccc4n3)ccc21 [PD-6] | 0.9 ± 0.23 | 0.6 ± 0.1 | 0.32 ± 0.13 | significantly reduce the thickness of the dermis of dermatitis mice (P≤0.01) | significantly reduce the thickness of the epidermis (P≤0.01) | significantly reduce the thickness of the dermis of dermatitis mice (P≤0.01) | significantly reduce the thickness of the epidermis (P≤0.01) | 70.87 ± 14.43 ^aa μm | 380.15 ± 22.54 ^a a μm | –
12 | CC(=O)c1cccc2nc(Oc3ccc4c(c3)COB4O)ccc12 [PD-12] | 22.1 ± 0.57 | 6.2 ± 1.23 | 3.46 ± 1.12 | significantly reduce the thickness of the dermis of dermatitis mice (P≤0.01) | significantly reduce the thickness of the epidermis (P≤0.01) | significantly reduce the thickness of the dermis of dermatitis mice (P≤0.01) | significantly reduce the thickness of the epidermis (P≤0.01) | 72.15 ± 8.57 aa μm | 362.44 ± 25.78 ^a a μm | –
13 | COC(=O)c1ccc2nc(Cl)cc(Oc3ccc4c(c3)COB4O)c2c1 [PD-27] | 12.9 ± 1.86 | 9.49 ± 1.59 | 2.69 ± 1.77 | – | – | – | – | 97.73 ± 8.95 μm | 430.05 ± 27.90 μm | –
14 | NC(=O)c1ccc2nc(Oc3ccc4c(c3)COB4O)ccc2c1 [PD-13] | 21.7 ± 1.51 | 8.68 ± 0.89 | 1.44 ± 0.4 | – | – | – | – | 100.23 ± 11.62 μm | 450.26 ± 25.55 μm | –
15 | N#Cc1ccc2nc(Cl)cc(Oc3ccc4c(c3)COB4O)c2c1 [PD-26] | 12.8 ± 1.82 | 7.23 ± 1.83 | 2.04 ± 0.24 | significantly reduce the thickness of the dermis of dermatitis mice (P≤0.01) | significantly reduce the thickness of the epidermis of the dermatitis mice (P≤0.05) | – | – | 83.94 ± 7.63 μm | 408.97 ± 23.06 μm | –
16 | CCOC(=O)c1cccc2nc(Oc3ccc4c(c3)COB4O)ccc12 [PD-3] | 17.3 ± 1.19 | 4.94 ± 1.56 | 1.98 ± 0.47 | significantly reduce the thickness of the dermis of dermatitis mice (P≤0.05) | – | – | – | 98.74 ± 9.63 μm | 420.80 ± 30.55 μm | –
17 | C[C@@H]1C[C@H]2[C@@H]3CCC4=CC(=O)C=C[C@]4(C)[C@@]3(F)[C@@H](O)C[C@]2(C)[C@@]1(O)C(=O)CO [hexadecadrol, reference compound] | – | – | – | – | – | – | – | 72.14 ± 10.58 ^a a μm | 377.32 ± 22.05**^a a μm | significantly reduce the thicknesses of the epidermal layer and dermal layer
